For one test, the system named is HCV 2b replicon. Description: Cell-based HCV replicon assay (TaqMan), genotype 2b replicon. The settings on record: Hepatitis C virus, 72 h, read-out: 2b EC90, HCV genotype 2b replicon cells, replicon RNA by real time PCR, day 3; EC90 = concentration for ΔCT=3.2 over baseline. The method in brief: (§1)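 Replicon cells seeded at 5000 cells/well with compound as 10 serial 2-fold dilutions (top 250 μM to 1 μM), 0.5% DMSO, 5% FBS, 3 days. NS5B replicon RNA quantified by multiplex TaqMan RT-PCR against GAPDH. EC50 = concentration giving ΔCT=1 over baseline; EC90 = ΔCT=3.2, from sigmoid fit.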
(In general: Replicon systems follow genome replication, usually without infectious particles.)

A further test has as its system HCV 1a replicon. Description: Cell-based HCV replicon assay (TaqMan), genotype 1a replicon. The note with it: HCV genotype 1a replicon cells, replicon RNA by real time PCR, day 3, EC90 = concentration for ΔCT=3.2 over baseline. In a few lines:
as §1

For the next test, the system named is HCV 1b replicon. Put plainly: Cell-based HCV replicon assay (TaqMan), genotype 1b replicon. The settings on record: HCV genotype 1b replicon cells, replicon RNA by real time PCR, day 3, EC90 = concentration for ΔCT=3.2 over baseline. The protocol:
Measurement of inhibition by compounds of the present invention was performed using the HCV replicon system. Several different replicons encoding different HCV genotypes or mutations were used. In addition, potency measurements were made using different formats of the replicon assay, including different ways of measurements and different plating formats. See Jan M. Vrolijk et al., A replicons-based bioassay for the measurement of interferons in patients with chronic hepatitis C, 110 J. VIROLOGICAL METHODS 201 (2003); Steven S. Carroll et al., Inhibition of Hepatitis C Virus RNA Replication by 2′-Modified Nucleoside Analogs, 278(14) J. BIOLOGICAL CHEMISTRY 11979 (2003). However, the underlying principles are common to all of these determinations, and are outlined below.
TaqMan®-Based Assay Protocol:
Compounds of the present invention were assayed for cell-based anti-HCV activity using the following protocol. Replicon cells were seeded at 5000 cells/well in 96-well collagen I-coated Nunc plates in the presence of the test compound. Various concentrations of test compound, typically in 10 serial 2-fold dilutions, were added to the assay mixture, with the starting concentration ranging from 250 μM to 1 μM. The final concentration of DMSO was 0.5%, fetal bovine serum was 5%, in the assay media. Cells were harvested on day 3 by the addition of 1× cell lysis buffer (Ambion cat #8721). The replicon RNA level was measured using real time PCR (TaqMan® assay). The amplicon was located in 5B. The PCR primers were: 5B.2F, ATGGACAGGCGCCCTGA (SEQ. ID NO. 1); 5B.2R, […] (SEQ. ID NO. 2); the probe sequence was FAM-labeled CACGCCATGCGCTGCGG (SEQ. ID NO. 3). GAPDH RNA was used as endogenous control and was amplified in the same reaction as NS5B (multiplex PCR) using primers and VIC-labeled probe recommended by the manufacturer (PE Applied Biosystem). The real-time […] reactions were run on ABI PRISM 7900HT Sequence Detection System using the following program: 48° C. for 30 minutes, 95° C. for 10 minutes, 40 cycles of 95° C. for 15 sec, 60° C. for 1 minute. The ΔCT values (CT5B-CTGAPDH) were plotted against the concentration of test compound and fitted to the sigmoid dose-response model using XLfit4 (MDL). EC50 was defined as the concentration of inhibitor necessary to achieve ΔCT=1 over the projected baseline; EC90 the concentration necessary to achieve ΔCT=3.2 over the baseline. Alternatively, to quantitate the absolute amount of replicon RNA, a standard curve was established by including serially diluted T7 transcripts of replicon RNA in the Taqman assay. All TaqMan® reagents were from PE Applied Biosystems. Such an assay procedure was described in detail in e.g. Malcolm et al., Antimicrobial Agents and Chemotherapy 50: 1013-1020 (2006).
HCV replicon EC50 assay data for various replicons and mutants was calculated for selected compounds of the present invention using this method and is provided in the tables above herein.

The test system of a further test is HCV 1a Y93H replicon. Description: Cell-based HCV replicon assay (TaqMan), 1a Y93H mutant replicon. The settings on record: EC90 = concentration for ΔCT=3.2 over baseline. In a few lines:
as §1

The mark [1] stands for this setting: Hepatitis C virus, 72 h, read-out: 1a Y93H EC90, HCV 1a Y93H mutant replicon cells, replicon RNA by real time PCR, day 3.

Where two headings read alike, the source gives them in different places.

With `COC(=O)N[C@H](C(=O)N1CCC[C@H]1c1ncc(-c2ccc(-c3ccc4c(ccc5nc([C@@H]6C[Si](C)(C)CN6C(=O)[C@@H](NC(=O)OC)[C@H](O)C(C)C)[nH]c54)c3)cc2)[nH]1)C(C)C` [Compound 68], the EC90 in the test on HCV 2b replicon was 143 nM; with HCV 1a replicon (Hepatitis C virus, 72 h), 0.21 nM; with HCV 1b replicon (Hepatitis C virus, 72 h), 0.02 nM; in the test with HCV 1a Y93H replicon (setting [1]), more than 1000 nM.
For `COC(=O)N[C@H](C(=O)N1CCC[C@H]1c1ncc(-c2ccc(-c3ccc4c(ccc5nc([C@@H]6C[Si](C)(C)CN6C(=O)[C@@H](NC(=O)OC)C6CCOCC6)[nH]c54)c3)cc2)[nH]1)C(C)C` [Compound 69], in that order: 19 nM, 0.33 nM, 0.05 nM and 118 nM.
With `COC(=O)N[C@H](C(=O)N1CCC[C@H]1c1ncc(-c2ccc(-c3ccc4c(ccc5nc([C@@H]6C[Si](C)(C)CN6C(=O)[C@@H](NC(=O)OC)C6CC6)[nH]c54)c3)cc2)[nH]1)C(C)C` [Compound 70], the concentration for an effect of 90% (EC90) was 162 nM with HCV 2b replicon; 0.35 nM with HCV 1a replicon (Hepatitis C virus, 72 h); 0.02 nM in the test on HCV 1b replicon (Hepatitis C virus, 72 h); more than 1000 nM in the test on HCV 1a Y93H replicon (setting [1]).
Consider `COC(=O)N[C@H](C(=O)N1CCC[C@H]1c1ncc(-c2ccc(-c3ccc4c(ccc5nc([C@@H]6C[Si](C)(C)CN6C(=O)C6(NC(=O)OC)CCC6)[nH]c54)c3)cc2)[nH]1)C(C)C` [Compound 71], for which the 90% effect concentration (EC90) was found to be 205 nM in the test on HCV 2b replicon; 10 nM in the test on HCV 1a replicon (Hepatitis C virus, 72 h); 0.03 nM in the test with HCV 1b replicon (Hepatitis C virus, 72 h); 288 nM in the test with HCV 1a Y93H replicon (setting [1]).
Regarding `COC(=O)N[C@@H](CC(C)(C)C)C(=O)N1C[Si](C)(C)C[C@H]1c1nc2ccc3cc(-c4ccc(-c5cnc([C@@H]6CCCN6C(=O)[C@@H](NC(=O)OC)C(C)C)[nH]5)cc4)ccc3c2[nH]1` [Compound 72], the EC90 in the test on HCV 2b replicon was determined as 114 nM; in the test on HCV 1a replicon (Hepatitis C virus, 72 h), 0.18 nM; in the test on HCV 1b replicon (Hepatitis C virus, 72 h), 0.02 nM; in the test with HCV 1a Y93H replicon (setting [1]), 130 nM.
Taken in the same sequence, the figures for `COC(=O)N[C@@H](CN(C)C)C(=O)N1C[Si](C)(C)C[C@H]1c1nc2ccc3cc(-c4ccc(-c5cnc([C@@H]6CCCN6C(=O)[C@@H](NC(=O)OC)C(C)C)[nH]5)cc4)ccc3c2[nH]1` [Compound 73] were 110 nM, 0.19 nM, 0.05 nM and more than 1000 nM.
For `COC(=O)N[C@H](C(=O)N1CCC[C@H]1c1ncc(-c2ccc(-c3ccc4c(ccc5nc([C@@H]6C[Si](C)(C)CN6C(=O)[C@H](NC(=O)OC)C(C)(C)OC)[nH]c54)c3)cc2)[nH]1)C(C)C` [Compound 74], in that order: 380 nM, 1.3 nM, 0.03 nM and more than 1000 nM.
Regarding `COC(=O)NC(Cc1cccs1)C(=O)N1C[Si](C)(C)C[C@H]1c1nc2ccc3cc(-c4ccc(-c5cnc([C@@H]6CCCN6C(=O)[C@@H](NC(=O)OC)C(C)C)[nH]5)cc4)ccc3c2[nH]1` (stereo partly drawn) [Compound 75], the EC90 was 425 nM in the test on HCV 2b replicon; 3.4 nM in the test on HCV 1a replicon (Hepatitis C virus, 72 h); 0.04 nM in the test on HCV 1b replicon (Hepatitis C virus, 72 h); more than 1000 nM in the test with HCV 1a Y93H replicon (setting [1]).
For `COC(=O)N[C@@H](CSC)C(=O)N1C[Si](C)(C)C[C@H]1c1nc2ccc3cc(-c4ccc(-c5cnc([C@@H]6CCCN6C(=O)[C@@H](NC(=O)OC)C(C)C)[nH]5)cc4)ccc3c2[nH]1` [Compound 76], the concentration for an effect of 90% (EC90) turned out to be 108 nM in the test on HCV 2b replicon; 0.25 nM with HCV 1a replicon (Hepatitis C virus, 72 h); 0.03 nM in the test with HCV 1b replicon (Hepatitis C virus, 72 h); 984 nM with HCV 1a Y93H replicon (setting [1]).
Taken in the same sequence, the figures for `COC(=O)N[C@@H](CC1CC1)C(=O)N1C[Si](C)(C)C[C@H]1c1nc2ccc3cc(-c4ccc(-c5cnc([C@@H]6CCCN6C(=O)[C@@H](NC(=O)OC)C(C)C)[nH]5)cc4)ccc3c2[nH]1` [Compound 77] were 221 nM, 0.56 nM, 0.03 nM and more than 1000 nM.
Taken in the same sequence, the figures for `CCN(CC)[C@H](C(=O)N1C[Si](C)(C)C[C@H]1c1nc2ccc3cc(-c4ccc(-c5cnc([C@@H]6CCCN6C(=O)[C@@H](NC(=O)OC)C(C)C)[nH]5)cc4)ccc3c2[nH]1)c1ccccc1` [Compound 78] were 6.5 nM, 0.14 nM, 0.03 nM and 514 nM.
For `COC(=O)N[C@H](C(=O)N1C[Si](C)(C)C[C@H]1c1nc(Cl)c(-c2ccc(-c3ccc4c(ccc5nc([C@@H]6CCCN6C(=O)[C@@H](NC(=O)OC)C(C)C)[nH]c54)c3)cc2)[nH]1)C(C)C` [Compound 96], in that order: 263 nM, 0.24 nM, 0.69 nM and 368 nM.
As to `COC(=O)N[C@H](C(=O)N1C[Si](C)(C)C[C@H]1c1nc2ccc3cc(-c4ccc(-c5cnc([C@@H]6C[C@H]7C[C@H]7N6C(=O)[C@@H](NC(=O)OC)C(C)C)[nH]5)cc4)ccc3c2[nH]1)C(C)C` [Compound 105], the EC90 came to 301 nM in the test with HCV 2b replicon; 0.26 nM with HCV 1a replicon; 0.02 nM in the test on HCV 1b replicon; 605 nM in the test on HCV 1a Y93H replicon (read-out: 1a Y93H EC90, HCV 1a Y93H mutant replicon cells, replicon RNA by real time PCR, day 3).
`COC(=O)N[C@H](C(=O)N1C[Si](C)(C)C[C@H]1c1nc2ccc3cc(-c4ccc(-c5nc(Cl)c([C@@H]6C[C@H]7C[C@H]7N6C(=O)[C@@H](NC(=O)OC)C(C)C)[nH]5)cc4)ccc3c2[nH]1)C(C)C` [Compound 108]: the concentration for an effect of 90% (EC90) in the test with HCV 2b replicon stood at 543 nM; in the test with HCV 1a replicon (Hepatitis C virus, 72 h), 0.04 nM; with HCV 1b replicon (Hepatitis C virus, 72 h), 0.02 nM; with HCV 1a Y93H replicon (setting [1]), 151 nM.
For `COC(=O)N[C@H](C(=O)N1CCC[C@H]1c1ncc(-c2ccc3cc(-c4ccc5c(ccc6nc([C@@H]7C[Si](C)(C)CN7C(=O)[C@@H](NC(=O)OC)C(C)C)[nH]c65)c4)ccc3c2)[nH]1)C(C)C` [Compound 112], in that order: more than 100 nM, 0.046 nM, more than 1 nM and more than 100 nM.
For `COC(=O)N[C@H](C(=O)N1CCC[C@H]1c1ncc(-c2ccc3cc(-c4ccc5c(ccc6nc([C@@H]7C[Si](C)(C)CN7C(=O)[C@@H](NC(=O)OC)C7CC7)[nH]c65)c4)ccc3c2)[nH]1)C1CC1` [Compound 114], in that order: more than 100 nM, 0.06 nM, more than 1 nM and more than 100 nM.
Taken in the same sequence, the figures for `COC(=O)N[C@@H](C(=O)N1CCC[C@@H]1c1ncc(-c2ccc3cc(-c4ccc5c(ccc6nc([C@H]7C[Si](C)(C)CN7C(=O)OC(C)(C)C)[nH]c65)c4)ccc3c2)[nH]1)C(C)C` [Compound 116] were more than 100 nM, more than 1 nM, more than 1 nM and more than 100 nM.
Consider `COC(=O)NC(C(=O)N1C[Si](C)(C)C[C@H]1c1nc2ccc3cc(-c4ccc5cc(-c6cnc([C@@H]7CCCN7C(=O)[C@H](NC(=O)OC)C(C)C)[nH]6)ccc5c4)ccc3c2[nH]1)[C@@H](C)OC` (stereo partly drawn) [Compound 117], for which the EC90 in the test on HCV 2b replicon is more than 100 nM; in the test with HCV 1a replicon (Hepatitis C virus, 72 h), 0.039 nM; in the test with HCV 1b replicon (Hepatitis C virus, 72 h) it was more than 1 nM; in the test on HCV 1a Y93H replicon (setting [1]), more than 100 nM.

In general, EC90 refers to the concentration needed for an effect of 90%.

The values are drawn from patent US20150057246A1, “SILYL-CONTAINING HETEROCYCLIC COMPOUNDS AND METHODS OF USE THEREOF FOR THE TREATMENT OF VIRAL DISEASES” (priority 2012, published 2015).
